Reference: patent publication US20120195842A1, “ENHANCED PHOTOSTABILITY OF SUNCARE CO[…]” (priority 2008, published 2012)

Test: Photostability of avobenzone in thin films of sunscreen compositions irradiated with solar simulated UVR
Assay type: physicochemical
Details: menthyl anthranilate at all levels, composition with octisalate, homosalate and avobenzone, up to 4 hours
Protocol: To investigate its stabilizing effect of menthyl anthranilate on the photostability of avobenzone, menthyl anthranilate (meradimate) was incorporated into a fixed sunscreen composition at different levels. Thin film strips of each composition were then irradiated with solar simulated UVR for up to 4 hours as described in detail below. The compositions were then analyzed for the presence of avobenzone after a given period of time. • Formula compositions were prepared as follows: […]
Assessment of avobenzone's photostability was performed on four different compositions that differed only in the amount of menthyl anthranilate that were used in the formulation.
The photostability of avobenzone in each emulsion was assessed after exposure to 80 joules of UV radiation (which corresponds to about 4 hours of outside sun exposure at noon in Memphis, Tenn. in June) using the method described below. […] Even 1% menthyl anthranilate improved avobenzone's photostability by approximately 6% after 2 hours and by 17% after 4 hours of exposure. […]
Avobenzone's photostability was assessed by spreading known weights (14-18 mg) of emulsions onto glass microscope slides at an application density of about 2 mg/cm^2. […] UVR flux was measured using an OL 754 Spectroradiometer (Optronics laboratories, Inc., Orlando, Fla.) with an 8 inch integrating sphere. […]

SMILES: CC1CCC(C(C)C)C(OC(=O)c2ccccc2N)C1 (stereo not shown) [menthyl anthranilate]
- effect on photostability of avobenzone to ultraviolet radiation (UVR): improves photostability of avobenzone
